Source: patent publication EP0352248A1, “Nucleoside derivatives” (priority 1988, dated 1990)

Experiments:
Type in all cases: cell-based
HIV (HTLV-IIIB) = assay: Effect on HIV in H9 cells (frequency of HIV antigen containing cells, immunofluorescence); details: Human immunodeficiency virus 1; H9 cells exposed to HIV (HTLV-IIIB), 6-7 days; read-out: Concentration (µM) for 50 % inhibition (IC₅₀) of human immuno deficiency virus multiplication in cell culture
Method: Test I Effect of compounds of the formula I on HIV in H9 cells
Materials and methods: HIV infection of H9 cells
H9 cells, 10⁵ cells per well on a 24 well plate, suspended in 2 ml RPMI-medium containing 10 % fetal calf serum, 100 µg/ml penicillin, 10 µg/ml streptomycin sulfate and 2 µg/ml polybrene are exposed to HIV (HTLV-IIIB) and different concentrations of the test compounds. The plates are incubated at 37°C in 5 % CO₂ for 6-7 days. The contents in each well is then homogenized with a pipette and transferred to a centrifuge tube. After centrifugation for 10 min at 1500 rpm the supernatant is removed and the cell pellet is analyzed by fixing in methanol on glass plates. Human HIV positive serum diluted 1:80 or 1:160 is added and incubated for 30 min at 37°C. The plate is then washed with phosphate-buffered saline (PBS) containing Ca²⁺ and Mg²⁺. Sheep anti-human conjugate (FITC) is added and after a new incubation the plate is again washed with PBS. Contrast straining is done with Evans blue and after drying the frequency of HIV antigen containing cells is determined in a microscope.

H9 cells = assay: Cellular toxicity, inhibition of cell multiplication, H9 cells; details: conc. 200 µM, cell number after 48 h
Method: (§1) Test II Cellular toxicity
H9 cells, 2x10⁷ cells per plate, are incubated in RPMI-1640 medium containing 10 % fetal calf serum, 70 mg/l penicillin, 100 mg/l streptomycin and 10 mM hepes, in absence or presence of test compounds. The number of cells per plate is determined after 48 h. Cells incubated in the absence of test compounds then underwent two cell division cycles.
F5000 cells, which are human embryo cells, 1x10⁵ cells per plate, are incubated in Eagle's minimal essential medium, supplemented with Earle's salts, non-essential amino acids, 10 % fetal calf serum, 10 mM hepes, 70 mg/l penicillin and 100 mg/l streptomycin, in absence or presence of test compounds. The number of cells per plate is determined after 48 h. Cells incubated in the absence of test compounds underwent one cell division cycle. […]

F5000 cells = assay: Cellular toxicity, inhibition of cell multiplication, F5000 cells; details: F5000 cells (human embryo cells), conc. 100 µM, cell number after 48 h
Method: as §1
F5000 cells, which are human embryo cells, 1x10⁵ cells per plate, are incubated in Eagle's minimal essential medium, supplemented with Earle's salts, non-essential amino acids, 10 % fetal calf serum, 10 mM hepes, 70 mg/l penicillin and 100 mg/l streptomycin, in absence or presence of test compounds. The number of cells per plate is determined after 48 h. Cells incubated in the absence of test compounds underwent one cell division cycle. The results are given as % inhibition of cell multiplication when the concentration of the compound is 100 µM or 250 µM.

IC50 (HIV (HTLV-IIIB)): < 1 µM
Compound: Nc1ccn(C2CC[C@H](CO)O2)c(=O)n1 (stereo partly drawn) [VSB 815, 1-(2,3-Dideoxy-alpha,beta-L-ribofuranosyl)-cytosine]
% Inhibition H9 (H9 cells): 35 (200) %
% Inhibition F5000 (F5000 cells): 55 (100) %
